Assay results as given in paper PMC3651166, “Differential Cytotoxic Activity of a Novel Palladium-Based Compound on Prostate Cell Lines, Primary Prostate Epithelial Cells and Prostate Stem Cells” (PLoS ONE, 2013).
“And” between values parts separate entries of the source, which are not always exact repeats. Equal entries are not always repeated. “Also recorded” adds a separate entry of the source.

Key:
[1] = system: P4E6, PC-3, LNCaP; test: MTS assay, average over cancer cell lines; format: cell-based, human; conditions: average of P4E6, PC-3, LNCaP
Experimental: (§1) In this study, six different prostate cell lines (PNT1A, PNT2-C2, BPH-1, PC-3, LNCaP, P4E6) were used (Table 1). These cell lines encompass the spectrum of cellular differentiation status (basal, intermediate and luminal phenotypes), as well as the spectrum of normal, early cancer and late cancer. BPH-1 is derived from benign prostate hyperplasia (BPH), while PNT2-C2 and PNT1A are derived from normal prostate. PC-3, LNCaP and P4E6 are cancer cell lines. LNCaP, PNT2-C2, PNT1A were grown in RPMI medium with 10% FCS (foetal calf serum); PC-3 was grown in Ham’s F-12 medium with 7% FCS; BPH-1 was grown in RPMI medium with 5% FCS; P4E6 was grown in KSFM (Keratinocyte serum free medium) with 2% FCS. No antibiotics were used in any media. The cells were incubated at 37°C in a humidified atmosphere containing 5% CO2.
(§2) This assay was performed for the initial screening of the effect of the Pd complex on the cell lines and the whole cell population of primary cultures. The CellTiter 96® Aqueous One Solution Cell Proliferation Assay kit (G3580, Promega, Madison, WI, USA) was used and the manufacturer’s instructions were followed. Briefly, after treating cells that were seeded at a density of 5,000 cells per well in a 96-well plate in triplicate for a desired period (24 h, 48 h, 72 h), 20 µL of reagent was added to each well. Following 2.5 h incubation at 37°C, the absorbance was read at 485 nm using a plate reader (PolarStar Optima, BMG Labtech, UK). Percent viability was calculated using the formula (% Viability = [(Sample Absorbance/Control Absorbance)]×100.
(§3) MTS and ATP assays were performed in triplicate and data presented as the mean +/− standard deviation. IC50 values (Table 3 and Table 4) were calculated from graphs of transformed data following application of the nonlinear regression (curve fit) that represents the log(inhibitor) ‘v’ normalized response (GraphPad Prism software) (Supplementary Figures S1 and S2). For significance calculations, the Wilcoxon rank sum test was used (Sigmaplot). […]

[2] = system: cleaved caspase-3; test: Western blotting for apoptosis, primary cultures; format: cell-based, human
Experimental: Following drug treatment, cell lysates were harvested using Cytobuster Protein Extraction Reagent (71009, EMD Millipore, Darmstadt, Germany) with protease inhibitors (cOmplete, EDTA-free Protease Inhibitor Cocktail Tablets, Roche Applied Science, UK). 20 µg of protein extract were loaded on 12% SDS-PAGE gels and wet-transferred to a PVDF membrane. Antibodies used include: monoclonal anti-β-actin 1∶5000 (A5316, Sigma-Aldrich), anti-LC3B 1∶3000 (Ab51520, abcam), cleaved caspase-3 (Asp175) 1∶1000 (9661S, Cell Signaling Technology) and secondary antibodies were Rabbit anti-mouse-HRP 1∶10000 (P0260, Dako) and anti-rabbit IgG HRP-linked 1∶5000 (Cell Signaling Technology Inc. 7074S). Kaleidoscope protein marker was run on each gel (161-0324, Bio-Rad).

[3] = system: PNT2-C2, BPH-1, P4E6, PC-3 and LNCaP; test: Flow cytometry cell cycle analysis, cell lines; format: cell-based, human
Experimental: Following drug treatment, floating cells in the media were pooled with adherent cells, which were collected by trypsinisation. Following centrifugation cells were resuspended in 0.5 ml PBS. Cells were fixed in 2 ml ice cold 70% ethanol, which was added in a dropwise fashion while vortexing. Cells were incubated on ice for 30 min then washed in 5 ml PBS and resuspended in 0.4 ml PBS. Following storage at 4°C overnight, 50 µl of RNAse (1 mg/ml) and 50 µl of propidium iodide (1 mg/ml) were added to the cells. Following incubation at 37°C for 30 min the cells were analysed for 2N and 4N DNA content on a flow cytometer (Cyan ADP Analyser, Beckman Coulter).

[4] = system: stem cells (SCs), transit-amplifying cells (TAs) and committed basal cells (CBs); test: ATP viability assay on fractionated primary cells; format: cell-based
Experimental: Epithelial cells from human tumour or BPH materials were cultured for several weeks and the cells treated at very low passages. The cultured basal cell population were trypsinized, resuspended in SCM and then plated on BSA-blocked collagen I-coated plates. […] The cells that attached to substratum were trypsinised, resuspended in MACs buffer and incubated with CD133-microbeads (Cat no. 130-050-801, Miltenyi Biotec Inc., Auburn, CA, USA). MACs MS columns (Cat no. 130-042-201, Miltenyi Biotec Inc., Auburn, CA, USA) were used to select the CD133^+ and CD133^− cells. Finally, the three cell populations were obtained: stem cells (SCs) - α2β1integrin^hi/CD133^+, transit-amplifying cells (TAs) - α2β1integrin^hi/CD133^− and committed basal cells (CBs) - α2β1integrin^lo.
This assay was employed for the bioluminescent determination of the adenosine 5′-triphosphate (ATP) released from fractionated living cells (cancer stem cells, transit amplifying cells and committed basal cells). As ATP is rapidly degraded in dead cells, high intracellular levels provide a selective assay for living cells. The ATP-bioluminescent somatic cell assay kit (FLASC, Sigma-Aldrich, Saint Louis, MO, USA) was used with protocol modifications. Briefly, 50–500 cells per well were seeded in a collagen-coated 96 well plate in triplicate. After treating cells for 72 h, 150 µL of medium was removed from each well. 50 µL of cell extraction reagent was added into each original well. Following 20 min incubation at RT, 50 µL of cell extract was transferred to a white 96-well plate. Finally, 50 µL of ATP assay mix solution was added into the wells and luminescence was read using a plate reader (PolarStar Optima, BMG Labtech, UK). Percent viability was calculated using the formula (% Viability = [(Sample RLU/Control RLU)]x100 where RLU refers to relative light units.

[5] = system: PNT1A, PNT2-C2, BPH-1; test: MTS assay, average over normal/benign cell lines; format: cell-based, human; conditions: average of PNT1A
Experimental: as §1, §2, §3

## [PdCl(terpy)](sac)⋅2 H2O [Pd complex]
[1]; 24 h
  IC50: 75.4 µM
[1]; 48 h
  IC50: 23.6 µM
[1]; 72 h
  IC50: 11.5 µM
[2]; BPH primary sample
  cleaved caspase-3 (apoptosis): only a positive result with the BPH sample at a low dose
[2]; primary cancer samples
  cleaved caspase-3 (apoptosis): no evidence of cleaved caspase-3; also recorded: No apoptosis was induced
[3]; PC3 cells
  sub-G1 DNA content (cell death): almost no change
[3]; all cell lines except PC3
  sub-G1 DNA content (cell death): increase in cells with sub-G1 DNA content
[3]; normal cells (BPH-1, PNT2-C2)
  S and G2 peaks: reduction in the S and G2 peaks
[4]; 6 µM range, ATP assay
  toxicity compared to cisplatin: comparable toxicity to cisplatin
[4]; 6.25 µM, 72 h, ATP assay, SC, TA, CB
  anti-growth effect compared to 25 µM Pd complex and 25 µM etoposide: less than 25 µM Pd complex but still more cytotoxic than 25 µM etoposide
[4]; 25 µM, 72 h, ATP assay, stem cells (also TA, CB)
  cytotoxicity compared to 25 µM etoposide: significantly more cytotoxic; also recorded: much more potent cytotoxic activity than etoposide
[4]; 50 µM, data not shown
  cell killing: killed all cells
[5]; PNT2-C2, BPH-1, 24 h
  IC50: 15.8 µM
[5]; PNT2-C2, BPH-1, 48 h
  IC50: 6.77 µM
[5]; PNT2-C2, BPH-1, 72 h
  IC50: 0.38 µM and 0.383 µM
